Assay results from article PMC7415805 (Theranostics, 2020).

Tests used:
TSPO [1] = target: T1, TSPO (Mus musculus, UniProt P50637); assay: [18F]CB251 PET/MR in intracranial LPS neuroinflammation model; assay type: in vivo; settings: saline-injected mice, day 4; p=0.012
T1 construct: from tissue; host or cells: brain (striatum) of living C57BL/6 mice after intracranial LPS or saline
Procedure: C57BL/6 mice (male, 6 weeks old) were used for generating the intracranial inflammation model. LPS (Sigma-Aldrich, 5 µg/2 µL dissolved in saline) was used to induce local inflammation in the right striatum of the mouse brain (anteroposterior, +1.8; mediolateral, +2.0; dorsoventral, -3.0) via intracranial injection by a robotic stereotaxic device (Stoelting, Wood Dale, IL) equipped with a Hamilton syringe at a rate of 0.25 µL/min [52]-[54]. Saline was injected as a control. The mouse was placed in the isoflurane induction box (5% isoflurane, 95% air, 250 cc/min) until the animal was fully anesthetized, and the isoflurane percentage was adjusted to 2% at a flow rate of 250 cc/min during the process.
To visualize neuroinflammation, PET/MR scans were acquired by a simultaneous small animal PET insert (SimPET, Brightonic imaging, Seoul, Korea) combined with an M7 1.0 T MRI system (Aspect Imaging, Jerusalem, Israel). […] Mice were anesthetized with 1.5% isoflurane during imaging.
(§1) PET images were reconstructed using 3D OSEM algorithm (12 subsets and 3 iterations). […] PET and MR images were reconstructed and analyzed by the AMIDE program (ver 0.9.0, http://amide.sourceforge.net). The ratio of maximum PET SUV in the right and left striatum was then calculated.

[2] = system: 293FT cells expressing polymorphic TSPOs; assay: PET scans of 293FT cells expressing polymorphic TSPOs (phantoms and mice bearing the cells); set-up: species or system human; settings: phantoms and mice bearing 293FT cells with polymorphic TSPOs
RAW264.7 = assay: [18F]CB251 uptake in activated macrophage cell line; assay type: cell-based, mouse; settings: RAW264.7 activated with LPS and IFN-γ for 24 h vs non-activated
Procedure: (§2) RAW264.7, a mouse macrophage cell line and mouse splenocytes were used to evaluate TSPO expression. LPS (50 ng/mL, Sigma-Aldrich, St.Louis, MO, USA) and IFN-γ (20 ng/mL, Sigma-Aldrich) were used to activate immune cells. The 293FT (Invitrogen, Carlsbad, CA, USA) and MDA-MB-231 (ATCC, Manassas, VA, USA) cell lines were used for various TSPO expression levels. Cells were maintained in complete DMEM (for Raw264.7 and MDA-MB-231) or MEM (for 293FT) with 10% FBS and 1% antibiotics (penicillin-streptomycin). All media and reagents for cell culture, including FBS and antibiotics were purchased from Gibco (Grand Island, NY, USA).
(§3) Cells were seeded in 6-well plates (Sigma-Aldrich) until they reached approximately 80% confluency. Before the uptake experiments, the cells were preincubated with glucose-free RPMI-1640 medium (Gibco) for 4 h. The cells were then trypsinized (Gibco), counted, and 1×10^5 cells transferred into a 5 mL test tube containing warmed Hank's balanced salt solution (HBSS, Sigma-Aldrich) with 0.5% (w/v) bovine serum albumin (Sigma-Aldrich). […] Cell lysates were collected, and radioactivity was measured by a Cobra II gamma counter (Canberra Packard; Vaughan, Ontario, Canada). Radioactivity was normalized according to the amount of total protein at the time of assay. Total protein levels were quantified by the BCA protein assay kit (Pierce, Rockford, IL, USA). […]

mouse splenocytes = assay: [18F]CB251 uptake in activated splenocytes; assay type: cell-based; settings: mouse splenocytes activated with LPS and IFN-γ for 24 h vs non-activated
Procedure: as §2, §3

[3] = system: 293FT cells expressing polymorphic TSPO; assay: In vitro cellular uptake of radioactive ligands in cells expressing polymorphic TSPO; assay type: cell-based, human; settings: 293FT cells expressing TSPO WT or Mut-A147T; 1 h at 37°C
Procedure: Cells were seeded in 6-well plates (Sigma-Aldrich) until they reached approximately 80% confluency. […] The cells were then trypsinized (Gibco), counted, and 1×10^5 cells transferred into a 5 mL test tube containing warmed Hank's balanced salt solution (HBSS, Sigma-Aldrich) with 0.5% (w/v) bovine serum albumin (Sigma-Aldrich). […] The cells were then washed 3 times with cold HBSS and lysed for 5 min in 200 μL of 1% sodium dodecyl sulfate (SDS, Sigma-Aldrich). Cell lysates were collected, and radioactivity was measured by a Cobra II gamma counter (Canberra Packard; Vaughan, Ontario, Canada). Radioactivity was normalized according to the amount of total protein at the time of assay. Total protein levels were quantified by the BCA protein assay kit (Pierce, Rockford, IL, USA). All experiments were performed in triplicate.

[4] = system: MDA-MB-231 cells transfected with pCMV-shTSPO/eGFP; assay: [18F]CB251 uptake in cells with reduced TSPO expression; assay type: cell-based, human; settings: MDA-MB-231 cells with reduced TSPO expression vs control
Procedure: (§4) For overexpression of the TSPO protein, the 293FT cell line was transiently transfected with vectors (pCMV-eGFP/TSPO) (AddGene, Cambridge, MA, USA) harboring the eGFP and TSPO coding sequences. MDA-MB-231, which highly expresses TSPO, was used for the reduction of TSPO expression by shRNA (pCMV-eGFP/shTSPO; AddGene). Each vector used for various levels of TSPO expression was transfected by Lipofectamine 2000 (Invitrogen, Waltham, MA, USA) at a total concentration of 2.5 µg/mL. Fluorescent images were acquired by a confocal laser-scanning microscope (Leica TCS SP8; Wetzlar, Hesse, Germany), and Western blotting was performed for verification.
as §3

[5] = system: 293FT cells transfected with pCMV-TSPO/eGFP; assay: [18F]CB251 uptake in TSPO-overexpressing cells; assay type: cell-based, human; settings: TSPO-overexpressing 293FT cells vs control
Procedure: as §4, §3

[6] = system: intracranial LPS-induced neuroinflammation; assay: Anti-inflammatory treatment in intracranial LPS neuroinflammation model, read by [18F]CB251 PET and BLI; assay type: in vivo, mouse; settings: CDDO-Me i.p. once daily for 3 days after LPS vs LPS-injected mice
Procedure: Luciferase-expressing cells were isolated from the dissected spleens of transgenic C57BL/6luc^Tg mice and centrifuged at 1300 rpm for 5 min at 4 °C). The red blood cell lysis buffer (1 mL/spleen, Sigma-Aldrich) was added to the cell pellet, and the mixture was incubated at room temperature for 3 min to remove red cells. After a double volume of RPMI medium was added to the cells, 2-3 volumes of red blood cell lysis buffer were added until complete lysis of red blood cells. Subsequently, the cells were re-suspended, ensuring a suspension of single cells, and filtered through a cell strainer (40 µm nylon, Falcon, Oneonta, NY). […] Bioluminescence intensity was measured by an IVIS 100 system (Perkin Elmer, Waltham, MA). […]
as §1
An in vivo IVIS 100 bioluminescence/optical imaging system (Xenogen, Alameda, CA, USA) was used to follow luciferase-expressing peripheral immune cells. […] The bioluminescent signal was acquired and analyzed by Living Image ver.2.50.2 software (Xenogen). […]

TSPO [7] = settings: Ki of ligands for TSPO; cited from earlier work
TSPO A147T mutant (LAB) = settings: previous reports; cited from earlier work

T1 sequence (P50637 whole entry): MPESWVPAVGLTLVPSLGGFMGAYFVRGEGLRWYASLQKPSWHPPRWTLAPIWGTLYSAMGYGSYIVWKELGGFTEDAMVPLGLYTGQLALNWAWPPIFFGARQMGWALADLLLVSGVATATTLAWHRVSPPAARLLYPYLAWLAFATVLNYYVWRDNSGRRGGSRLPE

CCCN(CCC)C(=O)Cc1c(-c2ccc(OCCF)cc2)nc2c(Cl)cc(Cl)cn12 [CB251]
[18F]CB251 PET signal, saline-injected right striatum vs non-injected left striatum (TSPO [1]): increased slightly | sensitivity of PET signal to TSPO polymorphism [2]: less sensitive to TSPO polymorphism | [18F]CB251 uptake (RAW264.7): increased | [18F]CB251 uptake (mouse splenocytes): increased | sensitivity of cellular uptake to TSPO polymorphism [3]: much less sensitive to TSPO polymorphism | [18F]CB251 uptake [4]: decreased | [18F]CB251 uptake [5]: increased

COC(=O)[C@]12CCC(C)(C)C[C@H]1[C@H]1C(=O)C=C3[C@@]4(C)C=C(C#N)C(=O)C(C)(C)[C@@H]4CC[C@@]3(C)[C@]1(C)CC2 [CDDO-Me, 2-Cyano-3,12-dioxo-oleana-1,9(11)-dien-28-oic acid methyl ester]
BLI signal ratio (total photon flux, right/left striatum) ([6]; p=0.0025): decreased dramatically | [18F]CB251 uptake ratio (SUVmax, right/left striatum) ([6]; p=0.0323): significantly decreased

COc1ccccc1CN(C(C)=O)c1cnccc1Oc1ccccc1 [PBR28, reference compound]
Ki (TSPO [7]): 6.1 nM | ratio of IC50 LAB/HAB (TSPO A147T mutant (LAB)): 55

CCC(C)N(C)C(=O)c1cc2ccccc2c(-c2ccccc2Cl)n1 (stereo not drawn) [PK11195, reference compound]
sensitivity of cellular uptake to TSPO polymorphism [3]: much less sensitive to TSPO polymorphism
